According to US6492365B1, “Microsomal triglyceride transfer protein” (Bristol-Myers Squibb Company, priority 1992, dated 2002):
Structures can show the parent of a compound that is named as a salt.

Target: T1, bovine MTP (Bos taurus, UniProt P55156)
T1 construct: with about 50-200 ng purified MTP in the well of a 96-well plate; from tissue; host or cells: bovine liver
T1 sequence (P55156 12-887): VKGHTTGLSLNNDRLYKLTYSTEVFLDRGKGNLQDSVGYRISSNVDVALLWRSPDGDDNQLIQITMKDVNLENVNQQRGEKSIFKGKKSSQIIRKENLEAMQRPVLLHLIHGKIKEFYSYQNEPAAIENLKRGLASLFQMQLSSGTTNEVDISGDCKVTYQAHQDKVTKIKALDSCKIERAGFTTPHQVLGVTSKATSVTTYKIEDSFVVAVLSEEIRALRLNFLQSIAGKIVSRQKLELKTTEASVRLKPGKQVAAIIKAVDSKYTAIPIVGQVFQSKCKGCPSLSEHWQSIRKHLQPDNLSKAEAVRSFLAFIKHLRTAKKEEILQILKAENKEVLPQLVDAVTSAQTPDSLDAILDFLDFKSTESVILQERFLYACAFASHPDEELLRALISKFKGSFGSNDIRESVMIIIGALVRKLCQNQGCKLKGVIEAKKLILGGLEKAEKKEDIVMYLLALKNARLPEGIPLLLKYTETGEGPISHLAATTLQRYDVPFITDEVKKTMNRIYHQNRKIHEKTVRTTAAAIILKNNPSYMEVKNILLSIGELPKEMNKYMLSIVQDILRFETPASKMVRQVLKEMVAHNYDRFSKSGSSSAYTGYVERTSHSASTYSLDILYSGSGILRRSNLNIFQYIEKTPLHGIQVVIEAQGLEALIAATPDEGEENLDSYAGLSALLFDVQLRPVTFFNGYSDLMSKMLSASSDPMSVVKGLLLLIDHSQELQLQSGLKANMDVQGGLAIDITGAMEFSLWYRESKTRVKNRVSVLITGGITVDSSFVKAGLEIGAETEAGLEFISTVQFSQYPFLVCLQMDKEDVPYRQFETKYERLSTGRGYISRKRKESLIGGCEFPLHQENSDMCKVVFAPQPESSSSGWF
T1 sequence (P05307 21-510 partner): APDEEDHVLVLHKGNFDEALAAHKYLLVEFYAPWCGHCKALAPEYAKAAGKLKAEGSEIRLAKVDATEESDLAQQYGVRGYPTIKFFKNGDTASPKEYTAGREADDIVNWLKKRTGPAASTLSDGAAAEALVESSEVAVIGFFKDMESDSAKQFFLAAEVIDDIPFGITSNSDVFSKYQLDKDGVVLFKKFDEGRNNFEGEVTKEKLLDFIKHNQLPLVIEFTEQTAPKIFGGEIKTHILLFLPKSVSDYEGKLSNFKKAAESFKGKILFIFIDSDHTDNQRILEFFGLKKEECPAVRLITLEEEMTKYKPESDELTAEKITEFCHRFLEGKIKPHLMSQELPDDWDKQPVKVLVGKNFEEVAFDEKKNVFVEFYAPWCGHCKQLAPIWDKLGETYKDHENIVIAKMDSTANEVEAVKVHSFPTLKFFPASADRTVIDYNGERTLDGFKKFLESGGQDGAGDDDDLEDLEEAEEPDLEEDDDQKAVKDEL
Assay: MTP-catalyzed transport of 14C-CE from donor SUV to acceptor SUV
Type: biochemical
Method: To measure the effect of compound A on bovine MTP-catalyzed transport of CE or PC between membranes, the lipid transfer assay which measures TG transfer between SUV was modified. The composition of the donor vesicles was the same, except 0.25 mol% ^14C-CE or ^14C-PC replaced the labeled TG. The composition of the acceptor vesicles were the same, except labeled PC and unlabeled TG were not included. Following precipitation of donor vesicles, the percentage of lipid transfer was calculated by comparing the ^14C-CE or -PC in the acceptor vesicles in the supernatant following a transfer reaction to the total ^14C-CE or -PC in the assay. The labeled lipid in the supernatant in the absence of MTP was subtracted from the labeled lipid in the presence MTP to calculate the MTP-catalyzed lipid transfer from donor SUV to acceptor SUV. The remainder of the assay was essentially as described previously.

decrease of CE transfer (at concentrations that inhibited approximately 40% of PC transfer): more than 80%
SMILES: O=C1c2ccccc2CN1C1CCN(CCC(c2ccccc2)c2ccccc2)CC1 [compound A, 2-[1-(3,3-diphenylpropyl)-4-piperdinyl]-2,3-dihydro-3-oxo-1H-isoindole hydrochloride]
inhibition of CE transfer (result in words): comparable to its inhibition of TG transfer
